From ChEMBL document CHEMBL4316630, “Benzimidazole-based DGAT1 inhibitors with a [3.1.0] bicyclohexane carboxylic acid moiety” (Bioorg Med Chem Lett, 2019)

How the values were obtained:
[1] = biological target: T1, Diacylglycerol O-acyltransferase 1 (Homo sapiens, UniProt O75907); assay: Inhibition of human DGAT1
T1 sequence (O75907 whole entry): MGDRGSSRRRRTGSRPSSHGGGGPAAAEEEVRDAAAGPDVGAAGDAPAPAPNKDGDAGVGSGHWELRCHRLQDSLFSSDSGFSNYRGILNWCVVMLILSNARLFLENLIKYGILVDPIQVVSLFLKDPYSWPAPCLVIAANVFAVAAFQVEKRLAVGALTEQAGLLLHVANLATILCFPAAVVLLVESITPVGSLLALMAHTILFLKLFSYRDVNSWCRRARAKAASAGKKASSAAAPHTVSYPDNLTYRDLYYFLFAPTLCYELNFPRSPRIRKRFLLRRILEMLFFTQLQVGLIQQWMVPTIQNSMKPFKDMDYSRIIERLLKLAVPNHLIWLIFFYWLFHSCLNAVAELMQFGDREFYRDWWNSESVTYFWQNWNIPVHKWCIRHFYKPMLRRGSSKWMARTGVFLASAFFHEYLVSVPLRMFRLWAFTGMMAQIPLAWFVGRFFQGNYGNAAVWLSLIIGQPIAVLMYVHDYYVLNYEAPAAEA

[2] = biological target: T2, Diacylglycerol O-acyltransferase 1 (Mus musculus, UniProt Q9Z2A7); assay: Inhibition of mouse DGAT1
T2 sequence (Q9Z2A7 whole entry): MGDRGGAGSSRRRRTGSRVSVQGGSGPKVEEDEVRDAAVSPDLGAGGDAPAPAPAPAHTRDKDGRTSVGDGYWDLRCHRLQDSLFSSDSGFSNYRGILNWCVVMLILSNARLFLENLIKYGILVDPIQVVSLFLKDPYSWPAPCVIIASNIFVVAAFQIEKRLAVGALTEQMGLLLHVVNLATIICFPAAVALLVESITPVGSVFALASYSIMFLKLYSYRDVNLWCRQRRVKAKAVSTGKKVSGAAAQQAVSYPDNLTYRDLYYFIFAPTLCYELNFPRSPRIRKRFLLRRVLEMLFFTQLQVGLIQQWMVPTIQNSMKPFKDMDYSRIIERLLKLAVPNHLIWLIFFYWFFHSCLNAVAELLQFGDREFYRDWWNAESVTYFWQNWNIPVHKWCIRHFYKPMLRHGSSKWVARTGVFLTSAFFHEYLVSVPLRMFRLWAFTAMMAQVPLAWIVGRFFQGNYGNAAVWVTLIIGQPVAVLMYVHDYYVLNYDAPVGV

[3] = Lipophilicity, log D of the compound by HPLC analysis; assay type: physicochemical
[4] = biological target: T3, Sterol O-acyltransferase 1 (Homo sapiens, UniProt P35610); assay: Inhibition of human ACAT1
T3 sequence (P35610 whole entry): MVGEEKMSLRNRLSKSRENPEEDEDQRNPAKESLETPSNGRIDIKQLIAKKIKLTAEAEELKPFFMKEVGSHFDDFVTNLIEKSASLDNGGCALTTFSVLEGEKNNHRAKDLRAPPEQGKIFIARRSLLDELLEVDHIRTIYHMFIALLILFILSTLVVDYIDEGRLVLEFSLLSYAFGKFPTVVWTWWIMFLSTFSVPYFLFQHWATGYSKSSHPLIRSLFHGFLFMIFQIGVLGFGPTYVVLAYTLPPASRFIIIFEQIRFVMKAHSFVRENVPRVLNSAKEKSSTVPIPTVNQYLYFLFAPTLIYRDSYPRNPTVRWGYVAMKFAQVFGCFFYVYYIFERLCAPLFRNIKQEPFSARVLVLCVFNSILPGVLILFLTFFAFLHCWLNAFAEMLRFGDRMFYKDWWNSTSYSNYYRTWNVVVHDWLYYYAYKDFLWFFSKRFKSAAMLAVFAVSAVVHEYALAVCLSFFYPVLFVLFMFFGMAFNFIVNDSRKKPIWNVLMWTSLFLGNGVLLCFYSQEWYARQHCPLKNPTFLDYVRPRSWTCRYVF

Homo sapiens = species: Homo sapiens; assay: Selectivity index, ratio of IC50 for human ACAT1 to IC50 for human DGAT1
Mus musculus [5] = assay: Reduction in lipid excursion in mouse assessed as change in triglyceride level at 3 mg/kg, po measured at 18 hrs post dose by lipid tolerance test; assay type: functional; design: scale not given: the % may be the effect or the level left
[6] = Plasma concentration in mouse at 3 mg/kg, po; assay type: ADME, organism-based; conditions: in vivo
[7] = Stability in rat hepatocytes assessed as epimerization incubated for 2 hrs by UPLC/HRMS analysis; assay type: ADME, cell-based, Hepatocyte
[8] = Stability in mouse hepatocytes assessed as epimerization incubated for 2 hrs by UPLC/HRMS analysis; assay type: ADME, cell-based, Hepatocyte
[9] = Stability in human hepatocytes assessed as epimerization incubated for 2 hrs by UPLC/HRMS analysis; assay type: ADME, cell-based, Hepatocyte
[10] = Drug metabolism in rat hepatocytes assessed as glucuronide formation incubated for 2 hrs by UPLC/HRMS analysis; assay type: ADME, cell-based, Hepatocyte
[11] = Drug metabolism in mouse hepatocytes assessed as glucuronide formation incubated for 2 hrs by UPLC/HRMS analysis; assay type: ADME, cell-based, Hepatocyte
[12] = Drug metabolism in human hepatocytes assessed as glucuronide formation incubated for 2 hrs by UPLC/HRMS analysis; assay type: ADME, cell-based, Hepatocyte
[13] = Plasma concentration in mouse at 10 mg/kg, po after 4 hrs; assay type: ADME, organism-based
Mus musculus [14] = assay: Reduction in lipid excursion in mouse assessed as change in triglyceride level at 10 mg/kg, po measured at 18 hrs post dose by lipid tolerance test; assay type: functional; design: scale not given: the % may be the effect or the level left
[15] = Plasma concentration in mouse at 10 mg/kg, po; assay type: ADME, organism-based; conditions: in vivo
[16] = Plasma concentration in mouse at 10 mg/kg, po after 3 hrs; assay type: ADME, organism-based
[17] = Drug metabolism in mouse assessed as epimerization by measuring plasma concentration of 1s,4s)-4-(1-(5-(5-(trifluoromethyl)-1H-benzo[d]imidazol-2-yl)pyridin-2-yl)piperidin-4-yloxy)cyclohexanecarboxylic acid at 10 mg/kg, po after 3 hrs; assay type: ADME, organism-based; conditions: in vivo

SMILES	IC50 [1] [nM]	IC50 [2] [nM]	logD [3]	IC50 [4] [nM]	Ratio IC50 (Homo sapiens)	Activity (Mus musculus [5]) [%]	concentration [6] [nM]	Stability [7]	Stability [8]	Stability [9]	Drug metabolism [10]	Drug metabolism [11]	Drug metabolism [12]	concentration at 4 h [13] [nM]	Activity (Mus musculus [14]) [%]	concentration [15] [nM]	concentration at 3 h [16] [nM]	concentration [17] [nM]
O=C(O)[C@H]1[C@@H]2C[C@@H](OC3CCN(c4ccc(-c5nc6cc(C(F)(F)F)ccc6[nH]5)cn4)CC3)C[C@@H]21	3.8	22	1.87	> 10000	> 2600	-30	25											
O=C(O)[C@H]1[C@@H]2C[C@H](OC3CCN(c4ccc(-c5nc6cc(C(F)(F)F)ccc6[nH]5)cn4)CC3)C[C@@H]21		4.3	1.9	3900	1950	-70	27	Stable	Stable	Stable	Metabolite_Detected	Metabolite_Detected	Metabolite_Detected	151				
O=C(O)[C@@H]1[C@@H]2C[C@H](OC3CCN(c4ccc(-c5nc6cc(C(F)(F)F)ccc6[nH]5)cn4)CC3)C[C@@H]21		74	1.88	> 10000	> 900	3	23	Stable	Stable	Stable	Metabolite_Detected	Metabolite_Detected	Metabolite_Detected					
O=C(O)[C@H]1CC[C@@H](OC2CCN(c3ccc(-c4nc5cc(C(F)(F)F)ccc5[nH]4)cn3)CC2)CC1			1.64		> 4000			Unstable	Unstable	Unstable					-75	26		
O=C(O)[C@@H]1[C@@H]2C[C@@H](OC3CCN(c4ccc(-c5nc6cc(C(F)(F)F)ccc6[nH]5)cn4)CC3)C[C@@H]21	5.9	48	1.73	> 10000	> 1690	-30	51											
O=C(O)[C@H]1CC[C@H](OC2CCN(c3ccc(-c4nc5cc(C(F)(F)F)ccc5[nH]4)cn3)CC2)CC1			1.68		> 2500			Unstable	Unstable	Unstable					-89	17	324	54
